# Molecular target: T1, MCR-1 (Homo sapiens, UniProt Q01726)
# T1 construct: expressed in transfected cells; host or cells: HEK 293
# Experiment: Melanocortin receptor binding assay, competition with 125I-HP 467, HEK 293 cells expressing hMCR-1
# Conditions: competition with 125I-HP 467, HEK 293 cells expressing MCR-1; read-out: MC-1 IC50
# Summary of the method: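 Intact-cell competition binding, 2.5 hr at 37 °C, in PBS/10% calf serum/1 mM CaCl2; hMCR-4 cells at 4×10^3 per tube, hMCR-1 cells at 2×10^4 per tube. Filtration on BSA/CaCl2-soaked GF/B, cold 50 mM Tris pH 7.4 washes, scintillation count.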
# T1 sequence (Q01726 whole entry): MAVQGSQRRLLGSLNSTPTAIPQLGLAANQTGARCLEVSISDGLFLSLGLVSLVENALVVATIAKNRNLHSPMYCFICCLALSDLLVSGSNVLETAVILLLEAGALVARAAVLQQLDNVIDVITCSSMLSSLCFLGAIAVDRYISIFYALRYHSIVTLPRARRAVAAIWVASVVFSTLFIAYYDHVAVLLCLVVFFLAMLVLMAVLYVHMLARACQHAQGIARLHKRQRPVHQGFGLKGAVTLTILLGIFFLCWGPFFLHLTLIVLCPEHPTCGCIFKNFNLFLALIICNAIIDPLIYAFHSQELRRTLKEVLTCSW
row,SMILES,IC50 [nM]
1,CCCCNC(CN)CCCN1Cc2ccccc2C(CNCCc2ccccc2)C1c1ccc(-c2ccccc2)cc1 (stereo not shown) [TRG 2411-124],1540
2,NCC(CCCN1Cc2ccccc2C(CNCCc2ccccc2)C1c1ccc(-c2ccccc2)cc1)NCC1CCCCC1 (stereo not shown) [TRG 2411-125],820
3,CCNC(CN)CCCN1Cc2ccccc2C(CNC2CCCCC2)C1c1ccc(-c2ccccc2)cc1 (stereo not shown) [TRG 2411-127],1480
4,CNC(C)CNC(CN)CCCN1Cc2ccccc2C(CNC2CCCCC2)C1c1ccc(-c2ccccc2)cc1 (stereo not shown) [TRG 2411-128],1570
5,CNC(CNC(CN)CCCN1Cc2ccccc2C(CNC2CCCCC2)C1c1ccc(-c2ccccc2)cc1)Cc1ccccc1 (stereo not shown) [TRG 2411-130],920
6,NCC(CCCN1Cc2ccccc2C(CNC2CCCCC2)C1c1ccc(-c2ccccc2)cc1)N1CCCC1 (stereo not shown) [TRG 2411-131],230
7,NCC(CCCN1Cc2ccccc2C(CNC2CCCCC2)C1c1ccc(-c2ccccc2)cc1)NCC1CCCCC1 (stereo not shown) [TRG 2411-134],1480
8,NCC(CCCN1Cc2ccccc2C(CNC2CCCCC2)C1c1ccc(-c2ccccc2)cc1)NCc1ccccc1 (stereo not shown) [TRG 2411-135],1980
9,CNC(CN)CCCN1Cc2ccccc2C(CN)C1c1ccc(-c2ccccc2)cc1 (stereo not shown) [TRG 2411-137],1620
10,CCNC(CN)CCCN1Cc2ccccc2C(CN)C1c1ccc(-c2ccccc2)cc1 (stereo not shown) [TRG 2411-138],1270
11,NCC(CCCN1Cc2ccccc2C(CN)C1c1ccc(-c2ccccc2)cc1)NCCc1ccccc1 (stereo not shown) [TRG 2411-139],1460
12,CNCCNC(CN)CCCN1Cc2ccccc2C(CN)C1c1ccc(-c2ccccc2)cc1 (stereo not shown) [TRG 2411-140],1360
13,NCCNC(CN)CCCN1Cc2ccccc2C(CN)C1c1ccc(-c2ccccc2)cc1 (stereo not shown) [TRG 2411-141],1150
14,CNC(CNC(CN)CCCN1Cc2ccccc2C(CN)C1c1ccc(-c2ccccc2)cc1)Cc1ccccc1 (stereo not shown) [TRG 2411-144],1220

# Same assay, conditions: inhibition of binding of 125I-HP 467, HEK 293 cells expressing MCR-1; read-out: MC-1 IC50
row,SMILES,IC50 [nM]
1,CCNc1ccc(C2C(CNCCc3ccccc3)c3ccccc3CN2CCCC(CN)NCCN)cc1 (stereo not shown) [TRG 2411-163],220
2,CCCCNC(CN)CCCN1Cc2ccccc2C(CNC2CCCCC2)C1c1ccc(NCC)cc1 (stereo not shown) [TRG 2411-165],90
3,CCNc1ccc(C2C(CNC3CCCCC3)c3ccccc3CN2CCCC(CN)N2CCCC2)cc1 (stereo not shown) [TRG 2411-166],40
4,CCNc1ccc(C2C(CNC3CCCCC3)c3ccccc3CN2CCCC(CN)NCCc2ccc(OC)cc2)cc1 (stereo not shown) [TRG 2411-168],230
5,CCNc1ccc(C2C(CNC3CCCCC3)c3ccccc3CN2CCCC(CN)NCc2ccc(Cl)cc2)cc1 (stereo not shown) [TRG 2411-170],130
6,CCNc1ccc(C2C(CNC3CCCCC3)c3ccccc3CN2CCCC(CN)NCc2ccc(OC)cc2)cc1 (stereo not shown) [TRG 2411-171],150
7,CCNc1ccc(C2C(CNC3CCCCC3)c3ccccc3CN2CCCC(CN)NCCc2ccc3ccccc3c2)cc1 (stereo not shown) [TRG 2411-172],220
8,CCNc1ccc(C2C(CN)c3ccccc3CN2CCCC(CN)NC)cc1 (stereo not shown) [TRG 2411-175],290
9,CCCCNC(CN)CCCN1Cc2ccccc2C(CN)C1c1ccc(NCC)cc1 (stereo not shown) [TRG 2411-177],110
10,CCNc1ccc(C2C(CN)c3ccccc3CN2CCCC(CN)NCCc2ccc(OC)cc2)cc1 (stereo not shown) [TRG 2411-181],110
11,CCNc1ccc(C2C(CN)c3ccccc3CN2CCCC(CN)NCc2ccccc2)cc1 (stereo not shown) [TRG 2411-182],200
12,CCNc1ccc(C2C(CN)c3ccccc3CN2CCCC(CN)NCc2ccc(Cl)cc2)cc1 (stereo not shown) [TRG 2411-183],130
13,CCNc1ccc(C2C(CN)c3ccccc3CN2CCCC(CN)NCCN)cc1 (stereo not shown) [TRG 2411-187],60
14,CCCCNc1ccc(C2C(CNCCc3ccccc3)c3ccccc3CN2CCCC(N)CN)cc1 (stereo not shown) [TRG 2411-188],130
15,CCCCNc1ccc(C2C(CNCCc3ccccc3)c3ccccc3CN2CCCC(CN)NC)cc1 (stereo not shown) [TRG 2411-189],120
16,CCCCNc1ccc(C2C(CNCCc3ccccc3)c3ccccc3CN2CCCC(CN)NCc2ccc(Cl)cc2)cc1 (stereo not shown) [TRG 2411-197],80
17,CCCCNc1ccc(C2C(CNCCc3ccccc3)c3ccccc3CN2CCCC(CN)NCc2ccc(OC)cc2)cc1 (stereo not shown) [TRG 2411-198],120
18,CCCCNc1ccc(C2C(CNCCc3ccccc3)c3ccccc3CN2CCCC(CN)NCCc2ccc3ccccc3c2)cc1 (stereo not shown) [TRG 2411-199],170
19,CCCCNc1ccc(C2C(CNCCc3ccccc3)c3ccccc3CN2CCCC(CN)NCCN)cc1 (stereo not shown) [TRG 2411-201],300
20,CCCCNc1ccc(C2C(CNC3CCCCC3)c3ccccc3CN2CCCC(N)CN)cc1 (stereo not shown) [TRG 2411-202],220
21,CCCCNc1ccc(C2C(CNC3CCCCC3)c3ccccc3CN2CCC[C@@H](CN)NC)cc1 (stereo partly shown) [TRG 2411-203],170

row,SMILES,IC50 [nM]
1,CCCCNc1ccc(C2C(CNC3CCCCC3)c3ccccc3CN2CCCC(CN)NCC)cc1 (stereo not shown) [TRG 2411-204],150
2,CCCCNc1ccc(C2C(CNC3CCCCC3)c3ccccc3CN2CCCC(CN)NCCCC)cc1 (stereo not shown) [TRG 2411-205],250
3,CCCCNc1ccc(C2C(CNC3CCCCC3)c3ccccc3CN2CCCC(CN)NCCc2ccccc2)cc1 (stereo not shown) [TRG 2411-207],190
4,CCCCNc1ccc(C2C(CNC3CCCCC3)c3ccccc3CN2CCCC(CN)NCc2ccc(Cl)cc2)cc1 (stereo not shown) [TRG 2411-211],100
5,CCCCNc1ccc(C2C(CNC3CCCCC3)c3ccccc3CN2CCCC(CN)NCCC2CCCCC2)cc1 (stereo not shown) [TRG 2411-214],80
6,CCCCNc1ccc(C2C(CN)c3ccccc3CN2CCCC(N)CN)cc1 (stereo not shown) [TRG 2411-216],110
7,CCCCNc1ccc(C2C(CN)c3ccccc3CN2CCCC(CN)NC)cc1 (stereo not shown) [TRG 2411-217],90
8,CCCCCNc1ccc(C2C(CNCCc3ccccc3)c3ccccc3CN2CCCCC(CN)NC)cc1 (stereo not shown) [TRG 2412-1],380
9,CCCCCNc1ccc(C2C(CNCCc3ccccc3)c3ccccc3CN2CCCCC(CN)NCCc2ccccc2)cc1 (stereo not shown) [TRG 2412-2],470
10,CCCCCNc1ccc(C2C(CNCCc3ccccc3)c3ccccc3CN2CCCCC(CN)NCc2ccccc2)cc1 (stereo not shown) [TRG 2412-3],360
11,CCOc1ccc(C2C(CNCCc3ccccc3)c3ccccc3CN2CCCCC(CN)NCCc2ccccc2)cc1 (stereo not shown) [TRG 2412-5],490
12,CCOc1ccc(C2C(CNCCc3ccccc3)c3ccccc3CN2CCCCC(CN)NCc2ccccc2)cc1 (stereo not shown) [TRG 2412-6],590
13,CCCOc1ccc(C2C(CNCCc3ccccc3)c3ccccc3CN2CCCCC(CN)NC)cc1 (stereo not shown) [TRG 2412-7],420
14,CCCOc1ccc(C2C(CNCCc3ccccc3)c3ccccc3CN2CCCCC(CN)NCCc2ccccc2)cc1 (stereo not shown) [TRG 2412-8],830
15,CCCOc1ccc(C2C(CNCCc3ccccc3)c3ccccc3CN2CCCCC(CN)NCc2ccccc2)cc1 (stereo not shown) [TRG 2412-9],570
16,CCCCOc1ccc(C2C(CNCCc3ccccc3)c3ccccc3CN2CCCCC(CN)NC)cc1 (stereo not shown) [TRG 2412-10],310
17,CCCCOc1ccc(C2C(CNCCc3ccccc3)c3ccccc3CN2CCCCC(CN)NCCc2ccccc2)cc1 (stereo not shown) [TRG 2412-11],820
18,CCCCOc1ccc(C2C(CNCCc3ccccc3)c3ccccc3CN2CCCCC(CN)NCc2ccccc2)cc1 (stereo not shown) [TRG 2412-12],540
19,CCCCCc1ccc(C2C(CNCCc3ccccc3)c3ccccc3CN2CCCCC(CN)NC)cc1 (stereo not shown) [TRG 2412-13],450
20,CCCCCc1ccc(C2C(CNCCc3ccccc3)c3ccccc3CN2CCCCC(CN)NCCc2ccccc2)cc1 (stereo not shown) [TRG 2412-14],880
21,CCCCCc1ccc(C2C(CNCCc3ccccc3)c3ccccc3CN2CCCCC(CN)NCc2ccccc2)cc1 (stereo not shown) [TRG 2412-15],750

row,SMILES,IC50 [nM]
1,CCCCCNc1ccc(C2C(CNCCc3ccccc3)c3ccccc3CN2CCCC(CN)NCc2ccccc2)cc1 (stereo not shown) [TRG 2412-18],190
2,CCOc1ccc(C2C(CNCCc3ccccc3)c3ccccc3CN2CCCC(CN)NC)cc1 (stereo not shown) [TRG 2412-19],160
3,CCOc1ccc(C2C(CNCCc3ccccc3)c3ccccc3CN2CCCC(CN)NCCc2ccccc2)cc1 (stereo not shown) [TRG 2412-20],150
4,CCCOc1ccc(C2C(CNCCc3ccccc3)c3ccccc3CN2CCCC(CN)NC)cc1 (stereo not shown) [TRG 2412-22],200
5,CCCOc1ccc(C2C(CNCCc3ccccc3)c3ccccc3CN2CCCC(CN)NCCc2ccccc2)cc1 (stereo not shown) [TRG 2412-23],350
6,CCCOc1ccc(C2C(CNCCc3ccccc3)c3ccccc3CN2CCCC(CN)NCc2ccccc2)cc1 (stereo not shown) [TRG 2412-24],410
7,CCCCOc1ccc(C2C(CNCCc3ccccc3)c3ccccc3CN2CCCC(CN)NCCc2ccccc2)cc1 (stereo not shown) [TRG 2412-26],200
8,CCCCOc1ccc(C2C(CNCCc3ccccc3)c3ccccc3CN2CCCC(CN)NCc2ccccc2)cc1 (stereo not shown) [TRG 2412-27],250
9,CCCCCc1ccc(C2C(CNCCc3ccccc3)c3ccccc3CN2CCCC(CN)NC)cc1 (stereo not shown) [TRG 2412-28],270
10,CCCCCc1ccc(C2C(CNCCc3ccccc3)c3ccccc3CN2CCCC(CN)NCCc2ccccc2)cc1 (stereo not shown) [TRG 2412-29],500
11,CNCCNC(CN)CCCCN1Cc2ccccc2C(CNCCc2ccccc2)C1c1ccc(-c2ccccc2)cc1 (stereo not shown) [TRG 2413-1],440
12,CNCCNC(CN)CCCCN1Cc2ccccc2C(CN)C1c1ccc(-c2ccccc2)cc1 (stereo not shown) [TRG 2413-2],540
13,CCNc1ccc(C2C(CN)c3ccccc3CN2CCCCC(CN)NCCNC)cc1 (stereo not shown) [TRG 2413-3],1560
14,CCNc1ccc(C2C(CNCCc3ccccc3)c3ccccc3CN2CCCCC(CN)NCCNC)cc1 (stereo not shown) [TRG 2413-4],340
15,CNC(CN)CCCCN1Cc2ccccc2C(CN)C1c1ccc([N+](=O)[O-])cc1 (stereo not shown) [TRG 2413-6],6510
16,NCCNC(CN)CCCN1Cc2ccccc2C(CN)C1c1ccc(-c2ccccc2)cc1 (stereo not shown) [TRG 2413-7],1540
17,CNC(CN)CCCN1Cc2ccccc2C(CN)C1c1ccc(-c2ccccc2)cc1 (stereo not shown) [TRG 2413-8],1840
18,CCNc1ccc(C2C(CNC3CCCCC3)c3ccccc3CN2CCCC(CN)NCCc2ccccc2)cc1 (stereo not shown) [TRG 2413-10],310
19,CCNc1ccc(C2C(CN)c3ccccc3CN2CCCC(CN)NCCc2ccccc2)cc1 (stereo not shown) [TRG 2413-11],130
20,CCNc1ccc(C2C(CNCCc3ccccc3)c3ccccc3CN2CCCC(CN)NC)cc1 (stereo not shown) [TRG 2413-12],190

# Source: patent US6608082B1, “Treatment of erectile dysfunction using isoquinoline compound melanocortin receptor ligands” (Lion Bioscience AG, priority 1998, dated 2003)
